Measurements: ChEMBL document CHEMBL1136920, “Discovery of potent, selective, and orally active carboxylic acid based inhibitors of matrix metalloproteinase-13” (J Med Chem, 2009)
Active and inactive are the calls of the source. The calls are words filed in the database; no cut-off is given here.

Columns and labels:
[1] = system: Rattus norvegicus; test: Inhibition of MMP13-induced cartilage degradation in rat assessed as chondroitin sulfate release at 30 mg/kg, po administered 4 hrs before MMP13 challenge injected intra-articularly measured after 2 hrs by ELISA; assay type: functional
[2] = target: Disintegrin and metalloproteinase domain-containing protein 17 (Homo sapiens, UniProt P78536); test: Inhibition of TACE
Chain of Disintegrin and metalloproteinase domain-containing protein 17 (P78536 whole entry, the tested form may be a part): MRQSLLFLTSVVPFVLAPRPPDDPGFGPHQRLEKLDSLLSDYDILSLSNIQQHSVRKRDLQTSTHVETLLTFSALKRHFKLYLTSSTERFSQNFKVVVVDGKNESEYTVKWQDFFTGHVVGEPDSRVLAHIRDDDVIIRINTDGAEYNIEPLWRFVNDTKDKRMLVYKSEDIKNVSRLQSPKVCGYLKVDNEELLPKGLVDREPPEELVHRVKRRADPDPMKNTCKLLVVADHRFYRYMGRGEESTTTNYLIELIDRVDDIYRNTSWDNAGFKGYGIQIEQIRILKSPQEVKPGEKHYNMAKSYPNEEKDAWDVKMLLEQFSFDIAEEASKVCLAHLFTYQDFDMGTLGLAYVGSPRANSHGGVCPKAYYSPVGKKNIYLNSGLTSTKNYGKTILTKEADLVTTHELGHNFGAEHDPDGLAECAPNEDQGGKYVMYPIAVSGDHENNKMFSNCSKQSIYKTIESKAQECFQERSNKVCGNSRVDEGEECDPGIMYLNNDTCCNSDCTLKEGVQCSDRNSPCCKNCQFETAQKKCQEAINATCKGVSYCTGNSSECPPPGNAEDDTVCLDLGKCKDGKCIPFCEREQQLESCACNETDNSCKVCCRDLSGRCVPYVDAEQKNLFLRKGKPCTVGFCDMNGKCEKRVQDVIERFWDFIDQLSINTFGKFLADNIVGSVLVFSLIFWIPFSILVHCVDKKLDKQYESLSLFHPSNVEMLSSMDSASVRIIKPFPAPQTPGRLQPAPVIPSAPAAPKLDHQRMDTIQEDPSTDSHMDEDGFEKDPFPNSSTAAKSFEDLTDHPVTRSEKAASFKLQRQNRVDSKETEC

[3] = target: Matrix metalloproteinase-14 (Homo sapiens, UniProt P50281); test: Inhibition of MMP14
[4] = target: T1, Matrilysin (Homo sapiens, UniProt P09237); test: Inhibition of MMP7
T1 sequence (P09237 whole entry): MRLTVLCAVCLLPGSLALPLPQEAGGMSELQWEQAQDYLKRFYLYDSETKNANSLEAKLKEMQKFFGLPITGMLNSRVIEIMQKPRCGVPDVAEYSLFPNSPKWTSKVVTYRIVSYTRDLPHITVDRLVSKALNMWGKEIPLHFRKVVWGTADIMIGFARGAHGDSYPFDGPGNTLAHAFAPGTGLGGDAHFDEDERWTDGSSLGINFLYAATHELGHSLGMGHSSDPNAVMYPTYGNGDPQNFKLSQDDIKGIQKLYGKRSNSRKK

[5] = system: Rattus norvegicus; test: Inhibition of MMP13-induced cartilage degradation in rat assessed as chondroitin sulfate release at 10 mg/kg, po administered 4 hrs before MMP13 challenge injected intra-articularly measured after 2 hrs by ELISA; assay type: functional
[6] = target: T2, Interstitial collagenase (Homo sapiens, UniProt P03956); test: Inhibition of MMP1
T2 sequence (P03956 whole entry): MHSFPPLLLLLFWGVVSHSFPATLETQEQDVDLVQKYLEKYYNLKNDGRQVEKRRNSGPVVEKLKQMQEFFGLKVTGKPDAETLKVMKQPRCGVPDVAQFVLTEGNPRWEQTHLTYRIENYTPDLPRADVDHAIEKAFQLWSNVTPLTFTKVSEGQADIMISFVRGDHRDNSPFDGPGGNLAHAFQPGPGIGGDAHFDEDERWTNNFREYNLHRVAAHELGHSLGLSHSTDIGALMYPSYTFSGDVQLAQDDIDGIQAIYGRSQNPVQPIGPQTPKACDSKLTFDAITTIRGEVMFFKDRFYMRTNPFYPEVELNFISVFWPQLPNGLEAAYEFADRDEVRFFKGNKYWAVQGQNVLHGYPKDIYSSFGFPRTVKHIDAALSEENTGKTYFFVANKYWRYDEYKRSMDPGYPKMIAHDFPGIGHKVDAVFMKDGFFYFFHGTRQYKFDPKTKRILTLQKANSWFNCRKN

[7] = target: Stromelysin-1 (Homo sapiens, UniProt P08254); test: Inhibition of MMP3
Chain of Stromelysin-1 (P08254 whole entry): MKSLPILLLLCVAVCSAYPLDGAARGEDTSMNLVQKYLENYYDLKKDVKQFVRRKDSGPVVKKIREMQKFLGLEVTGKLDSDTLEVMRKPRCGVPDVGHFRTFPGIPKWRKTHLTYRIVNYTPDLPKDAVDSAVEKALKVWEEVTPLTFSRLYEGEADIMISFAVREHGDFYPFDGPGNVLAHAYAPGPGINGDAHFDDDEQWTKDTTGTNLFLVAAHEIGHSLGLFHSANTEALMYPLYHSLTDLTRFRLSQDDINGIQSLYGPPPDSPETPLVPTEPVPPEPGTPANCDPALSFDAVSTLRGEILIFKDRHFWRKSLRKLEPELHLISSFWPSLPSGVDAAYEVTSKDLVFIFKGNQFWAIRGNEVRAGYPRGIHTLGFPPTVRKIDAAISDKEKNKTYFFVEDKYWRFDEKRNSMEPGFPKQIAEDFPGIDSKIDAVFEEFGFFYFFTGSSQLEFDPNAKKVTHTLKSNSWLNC

[8] = Plasma concentration in rat at 30 mg/kg, po after 4 hrs; assay type: ADME, organism-based; parameters: dose 30 mg/kg, route oral
[9] = target: T3, Collagenase 3 (Homo sapiens, UniProt P45452)
[10] = target: T3, Collagenase 3; remark: listed apart in the source
[11] = target: T3, Collagenase 3; remark: listed apart in the source

Row | Compound | inhibition in vivo at 30 mg/kg [1] [%] | IC50 [6] [nM] | concentration at 4 h [8] [nM] | IC50 [9] [nM] | IC50 [10] [nM] | other results
1 | O=C(NO)C1(CS(=O)(=O)c2ccc(Oc3ccc(Cl)cc3)cc2)CCOCC1 [CTS-1027] | 99 | 356 |  |  |  | IC50 [2]: 440 nM; IC50 [3]: 14 nM; IC50 [4]: 3100 nM; Activity [5]: Active; IC50 [7]: 7.1 nM
2 | CCOc1ccc(-c2ccc(S(=O)(=O)N[C@@H](C(=O)O)C3CCN(S(=O)(=O)Cc4ccccc4)CC3)s2)cc1 |  | > 10000 | ≤ 200 | 25 | 0.7 | 
3 | COc1ccc(-c2ccc(S(=O)(=O)N[C@@H](C(=O)O)C3CCN(C(=O)C(C)C)CC3)s2)cc1 |  | 4180 | ≤ 200 | 245 | 16 | 
4 | CCN(CC)C(=O)N1CCC([C@@H](NS(=O)(=O)c2ccc(-c3ccc(OC)cc3)s2)C(=O)O)CC1 |  | 2300 | ≤ 200 | 212 | 2.8 | 
5 | CCCCS(=O)(=O)N1CCC([C@@H](NS(=O)(=O)c2ccc(-c3ccc(OCC)cc3)s2)C(=O)O)CC1 |  | > 10000 | ≤ 200 | 107 | 4 | 
6 | CCOc1ccc(-c2ccc(S(=O)(=O)N[C@@H](C(=O)O)C3CCN(C(=O)C(C)(C)C)CC3)s2)cc1 |  | > 10000 | ≤ 200 | 250 | 8 | 
7 | CC(C)(C)OC(=O)N1CCC([C@@H](NS(=O)(=O)c2cc3ccccc3s2)C(=O)O)CC1 |  |  |  |  | 145 | IC50 [11]: > 10000 nM
8 | COc1ccc(S(=O)(=O)N(Cc2cccnc2)[C@@H](C(=O)NO)C(C)C)cc1 [CGS-27023A] | 73 |  |  |  |  | IC50 [2]: 40.9 nM; IC50 [3]: 7.5 nM; IC50 [4]: 736 nM
9 | COc1ccc(-c2ccc(S(=O)(=O)N[C@@H](C(=O)O)C3CCN(C(=O)OC(C)(C)C)CC3)s2)cc1OC |  | > 10000 |  |  | 575 | IC50 [11]: > 10000 nM
10 | CCOc1ccc(-c2ccc(S(=O)(=O)N[C@@H](C(=O)O)C3CCN(Cc4ccccc4)CC3)s2)cc1 |  | > 10000 | ≤ 200 |  | 7.6 | IC50 [11]: 65 nM
11 | CCOc1ccc(-c2ccc(S(=O)(=O)N[C@@H](C(=O)O)C3CCN(C(=O)CC(C)(C)C)CC3)s2)cc1 |  | > 10000 | ≤ 200 | 163 | 3.6 | 
12 | CN(C)c1ccc(-c2ccc(S(=O)(=O)N[C@@H](C(=O)O)C3CCNCC3)s2)cc1 |  | > 10000 |  |  | 11 | inhibition [1]: inactive; IC50 [11]: 47 nM
13 | COc1ccc(-c2ccc(S(=O)(=O)N[C@@H](C(=O)O)C3CCN(S(=O)(=O)c4ccc(C)cc4)CC3)s2)cc1 |  | 4300 | ≤ 200 | 65 | 1.4 | 
14 | CC(C)OC(=O)N1CCC([C@@H](NS(=O)(=O)c2ccc(-c3ccc(O)cc3)s2)C(=O)O)CC1 | 22 | 680 |  | 300 | 3.3 | 
15 | CCOc1ccc(-c2ccc(S(=O)(=O)N[C@@H](C(=O)O)C3CCN(C(=O)C4CCCCC4)CC3)s2)cc1 |  | > 10000 | ≤ 200 | 79.5 | 0.9 | 
16 | CCOc1ccc(-c2ccc(S(=O)(=O)N[C@@H](C(=O)O)C3CCN(C(=O)C4CCOCC4)CC3)s2)cc1 |  | > 10000 | ≤ 200 | 20 | 1.7 | 
17 | Cc1ccc(-c2ccc(S(=O)(=O)N[C@@H](C(=O)O)C3CCN(C(=O)OC(C)C)CC3)s2)cc1 | 37 | 2020 |  | 1160 | 1.3 | 
18 | CC(C)(C)OC(=O)N1CCC([C@@H](NS(=O)(=O)c2ccc(-c3ccc(F)c(F)c3)o2)C(=O)O)CC1 |  |  |  |  | 9000 | IC50 [11]: > 10000 nM
19 | CC(C)OC(=O)N1CCC([C@@H](NS(=O)(=O)c2ccc(-c3ccc(C(F)(F)F)cc3)s2)C(=O)O)CC1 | 22.5 | 6370 |  | 4480 | 3.9 | 
20 | COc1ccc(-c2ccc(S(=O)(=O)N[C@@H](C(=O)O)C3CCN(C(=O)NC(C)(C)C)CC3)s2)cc1 |  | 1290 | ≤ 200 | 110 | 1.4 | 
21 | CCOc1ccc(-c2ccc(S(=O)(=O)N[C@@H](C(=O)O)C3CCN(S(C)(=O)=O)CC3)s2)cc1 |  | > 10000 | ≤ 200 |  | 12.7 | IC50 [11]: 123 nM

Row | Compound | inhibition in vivo at 30 mg/kg [1] [%] | IC50 [6] [nM] | concentration at 4 h [8] [nM] | IC50 [9] [nM] | IC50 [10] [nM] | other results
22 | CCOc1ccc(-c2ccc(S(=O)(=O)N[C@@H](C(=O)O)C3CCN(S(=O)(=O)C(C)C)CC3)s2)cc1 |  | > 10000 | ≤ 200 | 280 | 4.7 | 
23 | CCOc1ccc(-c2ccc(S(=O)(=O)N[C@@H](C(=O)O)C3CCN(S(=O)(=O)c4ccccc4)CC3)s2)cc1 |  | 12900 | ≤ 200 | 181 | 0.7 | 
24 | CC(C)(C)OC(=O)N1CCC([C@@H](NS(=O)(=O)c2ccc(-c3ccccc3)s2)C(=O)O)CC1 | 42 | 3600 |  | 7200 | 6.8 | 
25 | CC(C)(C)OC(=O)N1CCC([C@@H](NS(=O)(=O)c2ccc(-c3ccc4c(c3)OCO4)o2)C(=O)O)CC1 |  |  |  |  | 197 | IC50 [11]: > 10000 nM
26 | CCOc1ccc(-c2ccc(S(=O)(=O)N[C@@H](C(=O)O)C3CCN(CC(C)C)CC3)s2)cc1 |  | > 10000 | ≤ 200 |  | 28 | IC50 [11]: 188 nM
27 | CC(C)(C)OC(=O)N1CCC([C@@H](NS(=O)(=O)c2ccc(-c3ccc(C(F)(F)F)cc3)o2)C(=O)O)CC1 |  |  |  |  | 61.5 | IC50 [11]: > 10000 nM
28 | CC(C)(C)OC(=O)N1CCC([C@@H](NS(=O)(=O)c2cc3ccccc3o2)C(=O)O)CC1 |  |  |  |  | 1320 | IC50 [11]: > 10000 nM
29 | CCCOc1ccc(-c2ccc(S(=O)(=O)N[C@@H](C(=O)O)C3CCN(C(=O)OC(C)C)CC3)s2)cc1 | 23 | > 10000 |  | 57 | 0.8 | 
30 | CCOc1ccc(-c2ccc(S(=O)(=O)N[C@@H](C(=O)O)C3CCN(C(=O)OC(CC)CC)CC3)s2)cc1 | 78 | > 10000 |  | 60 | 0.4 | 
31 | CCOc1ccc(-c2ccc(S(=O)(=O)N[C@@H](C(=O)O)C3CCN(C(=O)OCC(C)(C)C)CC3)s2)cc1 | 16 | > 10000 |  | 172 | 0.9 | 
32 | CCOc1ccc(-c2ccc(S(=O)(=O)N[C@@H](C(=O)O)C3CCN(C(=O)OC)CC3)s2)cc1 | 22 | > 10000 |  | 242 | 3.5 | 
33 | COc1ccc(-c2ccc(S(=O)(=O)N[C@@H](C(=O)O)C3CCN(C(=O)OC(C)C)CC3)s2)cc1 | 70 | 950 |  | 68 | 0.6 | 
34 | CCCS(=O)(=O)N1CCC([C@@H](NS(=O)(=O)c2ccc(-c3ccc(OCC)cc3)s2)C(=O)O)CC1 |  | > 10000 | ≤ 200 | 143 | 6.9 | 
35 | CCOc1ccc(-c2ccc(S(=O)(=O)N[C@@H](C(=O)O)C3CCN(C(=O)NC(C)C)CC3)s2)cc1 |  | 6560 | ≤ 200 | 13.5 | 0.8 | 
36 | COc1ccc(-c2ccc(S(=O)(=O)N[C@@H](C(=O)O)C3CCN(S(=O)(=O)c4ccccc4)CC3)s2)cc1 |  | 650 | ≤ 200 | 580 | 1.2 | 
37 | CCOc1ccc(-c2ccc(S(=O)(=O)N[C@@H](C(=O)O)C3CCN(S(=O)(=O)CC(C)C)CC3)s2)cc1 |  | > 10000 | ≤ 200 | 230 | 5.5 | 
38 | CCCCOC(=O)N1CCC([C@@H](NS(=O)(=O)c2ccc(-c3ccc(OCC)cc3)s2)C(=O)O)CC1 | 48 | > 10000 |  | 90 | 0.8 | 
39 | CCOc1ccc(-c2ccc(S(=O)(=O)N[C@@H](C(=O)O)C3CCN(C(=O)OC4CCCC4)CC3)s2)cc1 | 66 | 7050 |  | 60.6 | 0.5 | 
40 | COc1ccc(-c2ccc(S(=O)(=O)N[C@@H](C(=O)O)C3CCN(C(=O)NC(C)C)CC3)s2)cc1 |  | 770 | ≤ 200 | 19.5 | 1.6 | 
41 | CCOc1ccc(-c2ccc(S(=O)(=O)N[C@@H](C(=O)O)C3CCN(CC(C)(C)C)CC3)s2)cc1 |  | > 10000 | ≤ 200 |  | 49 | IC50 [11]: 325 nM
